In patent US8030300B2, “Ligands for nicotinic acetylcholine receptors, and methods of making and using them” (priority 2003, dated 2011):
Like-named read-outs stand apart in the source and are kept apart here.

Key:
Assay in all cases: biochemical
Format in all cases: binding
α2β2 nAChR subtype = biological target: T1, α2β2 nAChR subtype (Rattus norvegicus, UniProt P12389+P12390)
T1 construct: expressed in transfected cells
Text: (§1) In order to assess the steric and hydropathic effects of the C-5 substituents of the pyridine on the binding affinity and subtype-selectivity at neuronal nicotinic acetylcholine receptors. […] The binding affinity ratios for a ligand, calculated from its affinities at an α subunit paired with either the β2 osubunit or the β4 subunit, represents a measure of the selectivity of that ligand with regard to the β subunits.

α2β4 nAChR subtype = biological target: T2, α2β4 nAChR subtype (Rattus norvegicus, UniProt P12389+P12392)
T2 construct: expressed in transfected cells
T2 sequence (P12389 28-511): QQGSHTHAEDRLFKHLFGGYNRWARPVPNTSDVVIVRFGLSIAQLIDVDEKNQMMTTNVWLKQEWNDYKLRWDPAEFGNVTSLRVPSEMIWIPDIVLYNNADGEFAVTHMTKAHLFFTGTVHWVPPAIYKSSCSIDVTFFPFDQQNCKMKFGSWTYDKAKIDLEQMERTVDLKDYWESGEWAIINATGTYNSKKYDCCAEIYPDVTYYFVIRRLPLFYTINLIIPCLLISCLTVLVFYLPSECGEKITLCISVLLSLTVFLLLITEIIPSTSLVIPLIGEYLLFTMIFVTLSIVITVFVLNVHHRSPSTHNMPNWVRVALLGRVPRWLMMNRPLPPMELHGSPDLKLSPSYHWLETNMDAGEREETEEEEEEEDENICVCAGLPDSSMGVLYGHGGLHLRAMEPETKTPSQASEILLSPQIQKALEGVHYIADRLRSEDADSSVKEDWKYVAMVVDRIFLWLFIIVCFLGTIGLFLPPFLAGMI
T2 sequence (P12392 21-495): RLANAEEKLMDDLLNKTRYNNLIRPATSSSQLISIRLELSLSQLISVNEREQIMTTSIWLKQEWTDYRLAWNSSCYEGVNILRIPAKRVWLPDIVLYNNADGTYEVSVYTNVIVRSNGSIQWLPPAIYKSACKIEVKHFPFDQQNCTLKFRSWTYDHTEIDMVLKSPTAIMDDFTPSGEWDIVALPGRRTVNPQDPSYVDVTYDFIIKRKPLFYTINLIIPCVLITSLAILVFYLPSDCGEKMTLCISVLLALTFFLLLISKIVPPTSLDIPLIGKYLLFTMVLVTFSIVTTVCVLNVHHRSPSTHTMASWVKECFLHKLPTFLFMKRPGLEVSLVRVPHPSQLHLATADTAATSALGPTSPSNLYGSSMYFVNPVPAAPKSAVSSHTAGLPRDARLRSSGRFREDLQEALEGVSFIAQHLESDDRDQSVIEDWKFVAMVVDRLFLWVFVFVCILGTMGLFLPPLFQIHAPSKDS
Text: as §1

α3β2 nAChR subtype = biological target: T3, α3β2 nAChR subtype (Rattus norvegicus, UniProt P04757+P12390)
T3 construct: expressed in transfected cells
T3 sequence (P12390 25-500): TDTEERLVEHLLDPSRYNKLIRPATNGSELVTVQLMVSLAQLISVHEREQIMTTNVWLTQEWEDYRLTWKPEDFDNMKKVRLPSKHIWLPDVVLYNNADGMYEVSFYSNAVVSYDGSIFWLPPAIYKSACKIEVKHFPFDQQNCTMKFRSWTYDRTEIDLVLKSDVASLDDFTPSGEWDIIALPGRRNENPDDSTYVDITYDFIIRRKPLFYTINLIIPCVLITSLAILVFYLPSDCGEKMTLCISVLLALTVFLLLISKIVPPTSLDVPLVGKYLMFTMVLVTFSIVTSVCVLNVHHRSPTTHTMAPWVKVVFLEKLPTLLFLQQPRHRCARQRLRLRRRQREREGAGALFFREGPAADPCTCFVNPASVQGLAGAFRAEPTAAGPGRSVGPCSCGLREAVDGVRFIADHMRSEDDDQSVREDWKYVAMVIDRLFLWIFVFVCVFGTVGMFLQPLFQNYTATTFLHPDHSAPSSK
T3 sequence (P04757 26-499): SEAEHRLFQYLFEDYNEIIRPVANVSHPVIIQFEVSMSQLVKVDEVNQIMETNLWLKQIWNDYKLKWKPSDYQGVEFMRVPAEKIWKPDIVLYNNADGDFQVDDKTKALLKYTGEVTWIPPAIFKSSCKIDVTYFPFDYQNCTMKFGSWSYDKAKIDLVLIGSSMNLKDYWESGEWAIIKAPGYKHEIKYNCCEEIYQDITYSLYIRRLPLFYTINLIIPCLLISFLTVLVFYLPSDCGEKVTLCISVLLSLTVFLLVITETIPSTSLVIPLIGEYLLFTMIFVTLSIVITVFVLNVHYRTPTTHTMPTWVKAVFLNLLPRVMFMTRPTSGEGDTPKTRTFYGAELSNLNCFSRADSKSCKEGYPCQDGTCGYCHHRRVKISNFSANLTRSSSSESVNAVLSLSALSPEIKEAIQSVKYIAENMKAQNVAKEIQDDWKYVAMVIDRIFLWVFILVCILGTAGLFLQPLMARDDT
Text: as §1

α3β4 nAChR subtype = biological target: T4, α3β4 nAChR subtype (Rattus norvegicus, UniProt P04757+P12392)
T4 construct: expressed in transfected cells
T4 sequence (P04757 26-499): as above
T4 sequence (P12392 21-495): as the sequence (P12392 21-495) above
Text: as §1

α4β2 nAChR subtype = biological target: T5, α4β2 nAChR subtype (Rattus norvegicus, UniProt P09483+P12390)
T5 construct: expressed in transfected cells
T5 sequence (P12390 25-500): as the sequence (P12390 25-500) above
T5 sequence (P09483 31-630): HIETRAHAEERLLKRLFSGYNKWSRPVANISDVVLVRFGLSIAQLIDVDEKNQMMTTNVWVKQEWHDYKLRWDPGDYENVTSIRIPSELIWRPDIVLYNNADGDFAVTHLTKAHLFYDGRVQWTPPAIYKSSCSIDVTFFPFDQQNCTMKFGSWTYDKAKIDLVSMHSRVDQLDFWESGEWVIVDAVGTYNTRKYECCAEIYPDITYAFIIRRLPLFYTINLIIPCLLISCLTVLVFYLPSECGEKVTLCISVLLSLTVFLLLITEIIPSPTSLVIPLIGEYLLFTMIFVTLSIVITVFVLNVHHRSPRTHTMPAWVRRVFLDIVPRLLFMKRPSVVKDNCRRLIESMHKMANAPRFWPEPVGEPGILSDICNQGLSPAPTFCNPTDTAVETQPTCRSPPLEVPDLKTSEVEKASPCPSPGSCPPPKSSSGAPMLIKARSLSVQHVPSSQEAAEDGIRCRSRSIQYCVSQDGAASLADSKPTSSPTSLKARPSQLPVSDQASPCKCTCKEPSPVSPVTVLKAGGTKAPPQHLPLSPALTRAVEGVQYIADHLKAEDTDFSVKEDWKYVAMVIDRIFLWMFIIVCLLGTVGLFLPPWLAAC
Text: as §1

α4β4 nAChR subtype = biological target: T6, α4β4 nAChR subtype (Rattus norvegicus, UniProt P09483+P12392)
T6 construct: expressed in transfected cells
T6 sequence (P12392 21-495): as the sequence (P12392 21-495) above
T6 sequence (P09483 31-630): as the sequence (P09483 31-630) above
Text: as §1

[1] = biological target: T7, receptors in rat forebrain (mainly α4β2) (Rattus norvegicus, UniProt P09483+P12390)
T7 construct: from tissue; host or cells: rat forebrain homogenate
T7 sequence (P09483 31-630): as above
T7 sequence (P12390 25-500): as the sequence (P12390 25-500) above
Text: as §1
In Vitro Inhibition of ^3H-Epibatidin Binding
The high affinity binding site for ^3H-epibatidin is most certainly binding to the α4β2 subtype of nicotinic receptors. The identity of the low affinity site is still believed to be unknown.
Tissue preparation: Preparations may be performed at 0-4° C. unless otherwise indicated. […] The tissue suspension may then be centrifuged at 27,000×g for 10 min. The supernatant is then discarded and the pellet may then be washed three times by centrifugation at 27,000×g for 10 min in 20 mL fresh buffer, and the final pellet may be resuspended in fresh buffer (400 mL per g of original tissue) and used for binding assays.
Assay: Aliquots of 2.0 mL homogenate may be added to 0.100 mL of test solution and 0.100 mL of ^3H-epibatidin (0.3 nM, final concentration), mixed and incubated for 60 min at room temperature. […] The amount of radioactivity on the filters may be determined by conventional liquid scintillation counting. Specific binding is total binding minus non-specific binding.

[2] = Ki α2β2, Table 5, rat nAChR subtypes
[3] = Ki α2β4, Table 5, rat nAChR subtypes
[4] = Ki α3β2, Table 5, rat nAChR subtypes
[5] = Ki α3β4, Table 5, rat nAChR subtypes
[6] = Ki α4β2, Table 5, rat nAChR subtypes
[7] = Ki α4β4, Table 5, rat nAChR subtypes
[8] = Ki α4β2*, Table 5, *Rat forebrain, mainly α4β2
[9] = Table 5, rat nAChR subtypes, read-out: Ki α2β2
[10] = Table 3, mean ± SEM of 3 (nicotine, 1: 3 to 6) independent measurements, read-out: Ki α2β4
[11] = Table 5, rat nAChR subtypes, read-out: Ki α2β4
[12] = Table 3, mean ± SEM of 3 (nicotine, 1: 3 to 6) independent measurements, read-out: Ki α3β2
[13] = Table 3, mean ± SEM of 3 (nicotine, 1: 3 to 6) independent measurements, read-out: Ki α3β4
[14] = Table 5, rat nAChR subtypes, read-out: Ki α3β4
[15] = Table 3, mean ± SEM of 3 (nicotine, 1: 3 to 6) independent measurements, read-out: Ki α4β2
[16] = Table 3, mean ± SEM of 3 (nicotine, 1: 3 to 6) independent measurements, read-out: Ki α4β4
[17] = Table 5, rat nAChR subtypes, read-out: Ki α4β4

T1 sequence (P12390 25-500): as above
T1 sequence (P12389 28-511): as the sequence (P12389 28-511) above

C#Cc1cncc([C@@H]2CCCN2C)c1 [SIB-1508Y, reference compound]
Ki (α2β2 nAChR subtype; read-out: Ki α2β2): 642 nM | Ki (α2β4 nAChR subtype; read-out: Ki α2β4): 1140 nM | Ki (α3β2 nAChR subtype; read-out: Ki α3β2): 1890 nM | Ki (α3β4 nAChR subtype; read-out: Ki α3β4): 4430 nM | Ki (α4β2 nAChR subtype; read-out: Ki α4β2): 7080 nM | Ki (α4β4 nAChR subtype; read-out: Ki α4β4): 3240 nM

FCCCCC#Cc1cncc(OC[C@@H]2CCCN2)c1 [Ligand 42, 5-(6-Fluoro-1-hexynyl)-3-(2(S)-pyrrolidinylmethoxy)pyridine]
Ki (α2β2 nAChR subtype; [2]): 3.5 nM | Ki (α2β4 nAChR subtype; [3]): 680 nM | Ki (α3β2 nAChR subtype; [4]): 5.27 nM | Ki (α3β4 nAChR subtype; [5]): 7580 nM | Ki (α4β2 nAChR subtype; [6]): 0.907 nM | Ki (α4β4 nAChR subtype; [7]): 721 nM | Ki [1, 8]: 3.45 nM

CN1CCC[C@H]1COc1cncc(C#CCNC(=O)OC(C)(C)C)c1 [Ligand 13, 5-(3-tert-Butoxycarbonylamino-1-propynyl)-3-(1-methyl-2(S)-pyrrolidinylmethoxy)pyridine]
Ki (α2β2 nAChR subtype; read-out: Ki α2β2, Table 5, rat nAChR subtypes): 1.19 nM | Ki (α2β4 nAChR subtype; read-out: Ki α2β4, Table 5, rat nAChR subtypes): 8240 nM | Ki (α3β2 nAChR subtype; read-out: Ki α3β2, Table 5, rat nAChR subtypes): 7.27 nM | Ki (α3β4 nAChR subtype; read-out: Ki α3β4, Table 5, rat nAChR subtypes): 59900 nM | Ki (α4β2 nAChR subtype; read-out: Ki α4β2, Table 5, rat nAChR subtypes): 2.07 nM | Ki (α4β4 nAChR subtype; read-out: Ki α4β4, Table 5, rat nAChR subtypes): 8280 nM | Ki ([1]; read-out: Ki α4β2*, Table 5, *Rat forebrain, mainly α4β2): 3.71 nM

CN1CCC[C@H]1COc1cncc(C#CCO)c1 [Ligand 14]
Ki (α2β2 nAChR subtype; Ki α2β2, Table 1, mean of 3 (1, 2: 3 to 6) independent measurements): 2.43 nM | Ki (α2β4 nAChR subtype; Ki α2β4, Table 1, mean of 3 (1, 2: 3 to 6) independent measurements): 1880 nM | Ki (α3β2 nAChR subtype; Ki α3β2, Table 1, mean of 3 (1, 2: 3 to 6) independent measurements): 7.64 nM | Ki (α3β4 nAChR subtype; Ki α3β4, Table 1, mean of 3 (1, 2: 3 to 6) independent measurements): 18200 nM | Ki (α4β2 nAChR subtype; Ki α4β2, Table 1, mean of 3 (1, 2: 3 to 6) independent measurements): 0.954 nM | Ki (α4β4 nAChR subtype; Ki α4β4, Table 1, mean of 3 (1, 2: 3 to 6) independent measurements): 1690 nM | Ki ([1]; Ki Rat forebrain, Table 1, mean of 3 (1, 2: 3 to 6) independent measurements): 3.16 nM

Clc1ccc2c(n1)CCC1C3CCC(N3)C21 (centres unmarked) [Ligand 37b]
Ki (α2β2 nAChR subtype; Table 3, mean ± SEM of 3 (nicotine, 1: 3 to 6) independent measurements, read-out: Ki α2β2): 59 nM | Ki (α2β2 nAChR subtype; [9]): 59.4 nM | Ki (α2β4 nAChR subtype; [10]): 32 nM | Ki (α2β4 nAChR subtype; [11]): 32.2 nM | Ki (α3β2 nAChR subtype; [4]): 541 nM | Ki (α3β2 nAChR subtype; [12]): 530 nM | Ki (α3β4 nAChR subtype; [13]): 201 nM | Ki (α3β4 nAChR subtype; [14]): 201 nM | Ki (α4β2 nAChR subtype; [6]): 210 nM | Ki (α4β2 nAChR subtype; [15]): 295 nM | Ki (α4β4 nAChR subtype; [7]): 39.8 nM | Ki (α4β4 nAChR subtype; [16]): 41 nM | Ki [1, 8]: 576 nM

O=c1cccc2n1C[C@H]1C[C@@H]2CN(CCCOc2cccnc2)C1 [ZW-17]
Ki (α2β2 nAChR subtype): 2980 nM | Ki (α2β4 nAChR subtype): 14000 nM | Ki (α3β2 nAChR subtype): > 1000 nM | Ki (α3β4 nAChR subtype): > 10000 nM | Ki (α4β2 nAChR subtype): 3110 nM | Ki (α4β4 nAChR subtype): 3230 nM | Ki [1]: 4550 nM

Clc1ccc(C2CC3CCC2N3CCCN2C3CCC2C(c2ccc(Cl)nc2)C3)cn1 (centres unmarked) [Ligand 59b, Propane-1,3-N,N′-bisepibatidine]
Ki (α2β2 nAChR subtype; [9]): 6.08 nM | Ki (α2β4 nAChR subtype; [11]): 15.7 nM | Ki (α3β2 nAChR subtype; Table 5, rat nAChR subtypes, read-out: Ki α3β2): 5.17 nM | Ki (α3β4 nAChR subtype; [14]): 62.9 nM | Ki (α4β2 nAChR subtype; Table 5, rat nAChR subtypes, read-out: Ki α4β2): 8.66 nM | Ki (α4β4 nAChR subtype; [17]): 23.3 nM | Ki ([1]; Table 5, *Rat forebrain, mainly α4β2, read-out: Ki α4β2*): 10.1 nM

CN1CCC[C@H]1COc1cccnc1 [Ligand 8, 3-(1-Methyl-2(S)-pyrrolidinylmethoxy)pyridine, reference compound]
Ki (α2β2 nAChR subtype; [2]): 1.07 nM | Ki (α2β2 nAChR subtype; Ki α2β2, Table 6, [3H]-EB 0.099 nM, 0.091 nM, ligand 0.00197-100 μM, n = 1): 1.07 nM | Ki (α2β4 nAChR subtype; [3]): 209 nM | Ki (α2β4 nAChR subtype; Ki α2β4, Table 6, [3H]-EB 0.099 nM, 0.091 nM, ligand 0.00197-100 μM, n = 1): 209 nM | Ki (α3β2 nAChR subtype; [4]): 9.04 nM | Ki (α3β2 nAChR subtype; Ki α3β2, Table 6, [3H]-EB 0.099 nM, 0.091 nM, ligand 0.00197-100 μM, n = 1): 9.04 nM | Ki (α3β4 nAChR subtype; [5]): 835 nM | Ki (α3β4 nAChR subtype; Ki α3β4, Table 6, [3H]-EB 0.099 nM, 0.091 nM, ligand 0.00197-100 μM, n = 1): 835 nM | Ki (α4β2 nAChR subtype; [6]): 1.4 nM | Ki (α4β2 nAChR subtype; Ki α4β2, Table 6, [3H]-EB 0.099 nM, 0.091 nM, ligand 0.00197-100 μM, n = 1): 1.4 nM | Ki (α4β4 nAChR subtype; [7]): 205 nM | Ki (α4β4 nAChR subtype; Ki α4β4, Table 6, [3H]-EB 0.099 nM, 0.091 nM, ligand 0.00197-100 μM, n = 1): 205 nM | Ki ([1]; Ki α4β2**, Table 6, **Forebrain mainly α4β2, [3H]-EB 0.099 nM, 0.091 nM, n = 1): 5.15 nM | Ki [1, 8]: 5.15 nM

Clc1ccc(C2CC3CCC2N3CCCCCCN2C3CCC2C(c2ccc(Cl)nc2)C3)cn1 (centres unmarked) [Ligand 59c]
Ki (α2β2 nAChR subtype; Ki α2β2, Table 4, bivalent analogues): 4.1 nM | Ki (α2β4 nAChR subtype; Ki α2β4, Table 4, bivalent analogues): 37.4 nM | Ki (α3β2 nAChR subtype; Ki α3β2, Table 4, bivalent analogues): 6.6 nM | Ki (α3β4 nAChR subtype; Ki α3β4, Table 4, bivalent analogues): 64.7 nM | Ki (α4β2 nAChR subtype; Ki α4β2, Table 4, bivalent analogues): 7.2 nM | Ki (α4β4 nAChR subtype; Ki α4β4, Table 4, bivalent analogues): 31.9 nM

Clc1ccc2c(n1)CCC21CC2CCC1N2 (centres unmarked) [Ligand 58b]
Ki (α2β2 nAChR subtype; [2]): 2460 nM | Ki (α2β4 nAChR subtype; [3]): 7090 nM | Ki (α2β4 nAChR subtype; [10]): 7180 nM | Ki (α3β2 nAChR subtype; [4]): 3660 nM | Ki (α3β2 nAChR subtype; [12]): 4070 nM | Ki (α3β4 nAChR subtype; [5]): 14900 nM | Ki (α3β4 nAChR subtype; [13]): 13800 nM | Ki (α4β2 nAChR subtype; [6]): 5050 nM | Ki (α4β2 nAChR subtype; [15]): 6990 nM | Ki (α4β4 nAChR subtype; [16]): 9460 nM | Ki (α4β4 nAChR subtype; [17]): 9560 nM | Ki [1, 8]: 12100 nM
